Key:
TNFα = TNFα (Homo sapiens, UniProt P01375); test: Immunoassay binding test, TNFa; conditions: compounds 100 to 0.78 μM; TNFα 10 ng/ml, receptor 100 ng/ml; read-out: BINDING TNF IC50
Summary of the method: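 ELISA-type binding test: receptor-coated plates blocked with 2% BSA, then cytokine (six-point dilution series) preincubated 2 h at 37 °C and bound overnight at 4 °C. Detection used biotinylated anti-cytokine antibody and avidin-HRP, read as OD at 450 nm. For IL-6, IL-6Ra was present at 200 ng/ml final.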

[1] = system: hepatic shock induced by LPS/D-Galactosamine; test: LPS/D-Galactosamine induced lethal shock; format: in vivo, Balb/C mice; conditions: 5 mg force-fed in DMSO eight hours before LPS/D-Galactosamine i.p.; 48 hours
Experimental: 7 week-old Balb/C mice (n=10 per group) were force-fed with 100 μl of a solution of DMSO containing 5 mg of compounds 33, 65 or 71 eight hours before receiving an intraperitoneal injection of 200 μl of PBS containing 0.2 μg of LPS and 20 mg of D-Galactosamine. A negative control group (vehicle) was force-fed with 100 μl of a solution of DMSO alone eight hours before to be injected with 200 μl of LPS/D-Galactosamine solution. Mice survival was monitored for 48 hours after the injection of LPS/D-Galactosamine.

TNFa/TNFRI interaction = TNFa/TNFRI interaction (Homo sapiens, UniProt P01375); test: TNFa/TNFRI interaction displacement test; format: binding; conditions: for Displacement (%): compounds at 50 μM, human TNFRI 100 ng/ml;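 for Displacement EC50 TNFa in presence of compound: Difference: SPD304 reference at 20 µM final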
Summary of the method: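 Plates coated overnight at 4° C with human TNFRI (100 ng/ml) and blocked with 2% BSA, then test mixtures were incubated overnight at 4° C. Bound cytokine detected with biotinylated anti-cytokine antibody (2 h, 37° C) and avidin-HRP, read as OD at 450 nm.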

IL-13 = IL-13 (Homo sapiens, UniProt P35225); test: Immunoassay binding test, IL-13; conditions: for IC50: IL-13 400 ng/ml, receptor 100 ng/ml, read-out: BINDING IL13 IC50
Summary of the method: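 Receptor-coated plates; compounds (100 to 0.78 μM final) preincubated 2 h at 37° C with fixed cytokine, then bound to receptor overnight at 4° C. Bound cytokine detected with biotinylated anti-cytokine antibody and avidin-HRP, OD 450 nm.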

IL-4 = biological target: T1, IL-4 (Homo sapiens, UniProt P05112); test: Immunoassay binding test, IL-4; conditions: for IC50: IL-4 400 ng/ml, receptor 100 ng/ml, read-out: BINDING IL4 IC50
T1 sequence (P05112 25-153): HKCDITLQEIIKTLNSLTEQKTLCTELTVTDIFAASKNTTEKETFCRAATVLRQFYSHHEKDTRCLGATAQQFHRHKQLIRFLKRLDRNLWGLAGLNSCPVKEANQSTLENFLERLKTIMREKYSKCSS
Summary of the method: (§1)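 Compounds (final 100 to 0.78 μM) were preincubated 2 h at 37 °C with a fixed amount of cytokine; for IL-6, IL-6Ra was also present at 200 ng/ml final. Mixtures were then incubated overnight at 4 °C on receptor-coated plates. Bound cytokine was detected with biotinylated anti-cytokine antibody and avidin-HRP, read as OD at 450 nm.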

IL-6 = IL-6 (Homo sapiens, UniProt P05231); test: Immunoassay binding test, IL-6 (gp130 receptor, IL-6Ra present); conditions: IL-6Ra 200 ng/ml
Summary of the method: as §1

Chain of IL-6 (P05231 30-212, species assumed): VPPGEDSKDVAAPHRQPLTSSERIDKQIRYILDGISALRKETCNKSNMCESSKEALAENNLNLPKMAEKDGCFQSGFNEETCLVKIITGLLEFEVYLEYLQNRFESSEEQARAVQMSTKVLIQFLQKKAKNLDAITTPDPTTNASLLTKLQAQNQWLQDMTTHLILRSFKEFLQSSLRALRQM
Chain of TNFα (P01375 77-233 limits assumed, species assumed): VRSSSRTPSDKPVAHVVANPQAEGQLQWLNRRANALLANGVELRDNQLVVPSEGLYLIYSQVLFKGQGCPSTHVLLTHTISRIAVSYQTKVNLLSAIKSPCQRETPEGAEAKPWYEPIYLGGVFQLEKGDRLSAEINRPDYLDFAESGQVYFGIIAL
Chain of TNFa/TNFRI interaction (P01375 77-233 limits assumed): as the sequence (P01375 77-233 limits assumed, species assumed) above
Chain of IL-13 (P35225 25-146, species assumed): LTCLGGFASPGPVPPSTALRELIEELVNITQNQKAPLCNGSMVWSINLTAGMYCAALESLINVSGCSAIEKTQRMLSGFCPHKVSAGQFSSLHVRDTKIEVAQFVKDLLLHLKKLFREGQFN

Row | Compound | IC50 (TNFα) | survival [1] | Displacement EC50 TNFa in presence of compound: Difference (TNFa/TNFRI interaction; Compound EC50 minus SPD304 EC50) | Displacement (%) (TNFa/TNFRI interaction) | BINDING IL13 % Neutra at 100 μM (IL-13) | IC50 (IL-13) | BINDING IL4 % Neutra at 100 μM (IL-4) | IC50 (IL-4) | BINDING IL6 % Neutra at 100 μM (IL-6)
1 | O=S(=O)(c1ccccc1)n1cc(CN(CCCCCNC2CCCCC2)Cc2ccncc2)c2ccccc21 [Compound 33] | 4.6 µM | 100% | 0.0116 µg/mL | 273% | 95.4% | 10.5 µM | 96% | 4.1 µM | −11.8%
2 | CN(CCOCCN(Cc1cccnc1F)Cc1cn(S(=O)(=O)c2ccccc2)c2ccccc12)C1CCCCC1 [Compound 65, N-(2-(2-(((2-fluoropyridin-3-yl)methyl)((1-(phenylsulfonyl)-1H-indol-3-yl)methyl)amino)ethoxy)ethyl)-N-methylcyclohexanamine] | 5.9 µM | 60% |  | 224% | 79.3% | > 50 µM | 86.5% | 5.5 µM | 0%
3 | O=S(=O)(c1ccccc1)n1cc(CN(CCCCNC2CCCC2)Cc2cccnc2F)c2ccccc21 [Compound 71, N′-cyclopentyl-N^4-((2-fluoropyridin-3-yl)methyl)-N^4-((1-(phenylsulfonyl)-1H-indol-3-yl)methyl)butane-1,4-diamine] | 9.8 µM | 60% |  | 199% | 89.7% | > 50 µM | 92.4% | 6 µM | 2%
4 | CN(CCOCCN(Cc1cccnc1F)Cc1cn(S(=O)(=O)c2ccccc2)c2ccccc12)C1CCCC1 [Compound 105, N-(2-(2-(((2-fluoropyridin-3-yl)methyl)((1-(phenylsulfonyl)-1H-indol-3-yl)methyl)amino)ethoxy)ethyl)-N-methylcyclopentanamine] | 7.5 µM |  |  | 162% | 74.3% | > 50 µM | 91.2% | 11.5 µM | 0%
5 | CCCN(CCOCCN(Cc1cccnc1F)Cc1cn(S(=O)(=O)c2ccccc2)c2ccccc12)C1CCCC1 [Compound 106] | 11.5 µM |  |  | 132% | 32.1% | > 50 µM | 84.1% | 14.6 µM | 0%
6 | CCN(CCOCCN(Cc1cccnc1F)Cc1cn(S(=O)(=O)c2ccccc2)c2ccccc12)C1CCCC1 [Compound 107, N-ethyl-N-(2-(2-(((2-fluoropyridin-3-yl)methyl)((1-(phenylsulfonyl)-1H-indol-3-yl)methyl)amino)ethoxy)ethyl)cyclopentanamine] | 7.2 µM |  |  | 169% | 66.1% | 25.9 µM | 74.9% | 5.1 µM | 0%
7 | CCCN(CCOCCN(Cc1cccnc1F)Cc1cn(S(=O)(=O)c2ccccc2)c2ccccc12)C1CCCC1 [Compound 108, N-(2-(2-(((2-fluoropyridin-3-yl)methyl)((1-(phenylsulfonyl)-1H-indol-3-yl)methyl)amino)ethoxy)ethyl)-N-propylcyclopentanamine] | 9.6 µM |  |  | 165% | 58.8% | 40.4 µM | 76.7% | 9.1 µM | 0%
8 | CCCCN(CCOCCN(Cc1cccnc1F)Cc1cn(S(=O)(=O)c2ccccc2)c2ccccc12)C1CCCC1 [Compound 109, N-butyl-N-(2-(2-(((2-fluoropyridin-3-yl)methyl)((1-(phenylsulfonyl)-1H-indol-3-yl)methyl)amino)ethoxy)ethyl)cyclopentanamine] | 11.5 µM |  |  | 207% | 7.8% |  | 86.3% | 9.6 µM | 1%

— patent publication US20230416239A1, “COMPOUNDS AND METHODS FOR TREATING A CYTOKINE-MEDIATED DISEASE” (CONSERVATOIRE NATIONAL DES ARTS ET MÉTIERS, priority 2020, published 2023)
